US11608319B2, “Beta-amino acid derivative, kinase inhibitor and pharmaceutical composition containing the same, and method for performing an in vivo related application that benefits from the inhibition of a kinase” (Industrial Technology Research Institute, priority 2019, dated 2023)
“And” between values parts separate entries of the source, which are not always exact repeats. Identical values can stand only once. Counter-ions that a name gives are not always drawn. Like-named read-outs stand apart in the source and are kept apart here.

What was measured:
[1] = tested on: rabbit eyes with high intraocular pressure induced by hypertonic saline; assay: Model of hypertonic saline induced high intraocular pressure rabbit (acute high intraocular pressure model); type: in vivo, New Zealand white rabbit; parameters: AUC: unit not given beside the values; details: for AUC: intraocular pressure over 0-5 hours; for Maximum intraocular pressure difference (%) / Maximum intraocular pressure difference (mm Hg): versus physiological saline group
Excerpt: Evaluation of the effect of reducing intraocular pressure in model of hypertonic saline induced high intraocular pressure rabbit (acute high intraocular pressure model)
Experimental animal: New Zealand white rabbit, male, weighing 2.0-3.0 kg. New Zealand white rabbits were purchased from a qualified laboratory animal rabbit farm in Taiwan before the experiment and were raised in the Animal Center of National Chiao Tung University.
Negative control 1: Physiological saline
Negative control 2: Vehicle without test substance (containing 5% mannitol, 20 mM boric acid and 0.125% nonoxynol-9)
Experimental method: male New Zealand white rabbits were weighed and grouped and then anesthetized. 160 μL of hypertonic saline (5% NaCl) was injected into the vitreous bodies of the left and right eyes of the rabbit under anesthesia, so that the rabbit eyes became a state of high intraocular pressure. […] The intraocular pressure (TOP) detection time points were before anesthesia (0 hours) and 0.5, 1, 1.5, 3, and 5 hours after administration.
Maximum intraocular pressure difference: The difference between an individual's TOP readings and the average TOP readings of the negative control group 1 (physiological saline) at the time point at which the maximum response is recorded (J Ocul Pharmacol Ther. 2010 April; 26(2): 125-132)

[2] = tested on: rabbit eyes with normal intraocular pressure; assay: Evaluation of the effect of decreasing intraocular pressure in a model of rabbit with normal intraocular pressure; type: in vivo, New Zealand white rabbit; details: for Intraocular pressure difference (mmHg): at time point of maximum effect
Protocol: Evaluation of the Effect of Decreasing Intraocular Pressure in a Model of Rabbit with Normal Intraocular Pressure
Experimental animal: New Zealand white rabbit, male, weighing more than 2 kg. New Zealand white rabbits were purchased from Huijun Farm (Changhua, Taiwan). After a one-week quarantine period, they were raised in MASTER LABORATORY Co., Ltd under the environmental conditions of 16-22° C., 30-70% relative humidity (RH), 8 hours day/16 hours night.
(1) Evaluation of the Effect of Reducing Intraocular Pressure
After weighing 12 New Zealand white rabbits (2.0-4.0 kg) and grouping them (n=3-6 in each group), the white rabbits were fixed with a wrap.

[3] = tested on: rabbit eyes with high intraocular pressure induced by magnetic beads; assay: Model of magnetic bead induced high intraocular pressure rabbit (intraocular pressure >30 mmHg); type: in vivo, New Zealand white rabbit; details: for Maximum intraocular pressure difference (mmHg): experiment of Table 13
Excerpt: Evaluation of the effect of reducing intraocular pressure in model of magnetic bead induced high intraocular pressure rabbit (high intraocular pressure model with intraocular pressure >30 mmHg)
Experimental animal: New Zealand white rabbit, male, body weight 2.0-3.0 kg. New Zealand white rabbits were purchased from Huijun Farm (Changhua, Taiwan) before the experiment and were raised in the Animal Center of National Chiao Tung University.
Experimental method: After weighing and grouping male New Zealand white rabbits, the New Zealand white rabbits were anesthetized with Zoletil 50 0.2 mL/kg. 50 μL of magnetic bead solution (50 mg/mL, magnetic bead size of 10 μm) was injected into the left and right anterior eye chambers of the rabbit under anesthesia to make rabbit eyes become a state of high intraocular pressure. After the injection to the anterior chamber of the eye, a strong […] iron magnet ring was immediately put around the eye for 10-20 minutes to make the magnetic beads completely block the drainage tissue of the aqueous humor. After disinfecting the eyeball with antibiotics, moisturizing eye ointment was provided to restore the eyeball, and the intraocular pressure rising was waited. […] The experiment was conducted for 2 consecutive days.

MYLK4 = MYLK4 (Homo sapiens (Human), UniProt Q86YV6); assay: Assay for inhibitory effect on MYLK-4, LanthaScreen Eu Kinase Binding Assay
patients = details: cited from earlier work
rabbit eyes [4] = assay: Safety margin assay (eye irritation, OECD/OCDE 405)
[5] = tested on: rabbit eyes with normal intraocular pressure; details: for maximum effect (Emax) dose in the normal intraocular pressure rabbit model: eye drop concentration
Protocol: The maximal effect (Emax) dose evaluation of the intraocular pressure reduction model in normal rabbit
Animals: Male New Zealand white rabbits (n=7/each group);
Administration: 50 μL of the test compound was instilled in the right eye (dosed eye) and 50 μL of the vehicle (without the test compound) in the left eye (control eye) of each experimental animal. The 3 formulation mentioned above were administered once a day for 3 consecutive days.
The intraocular pressure of each animal was measured by Tono-Vet (iCare) before administration (0 hours) and 2, 4, 6 and 8 hours after administration on Day 1 and Day 3.
The maximum magnitude of the reduction in intraocular pressure %=(Intraocular pressure of the control eye−Intraocular pressure of the dosed eye)/Intraocular pressure of the control eye*100
The data presented in this experiment is the data that has removed the unqualified data (white rabbits with an intraocular pressure difference ≥2 mmHg (n=1) in the two eyes on Day 1 and >5 mmHg in the two eyes before the administration on the Day 3 (n=1) have been removed) and removed the rebound high intraocular pressure (n=3).

ROCK1 = ROCK1 (Homo sapiens (Human), UniProt Q13464); assay: biochemical
YSK4 = YSK4 (Homo sapiens (Human), UniProt Q56UN5); assay: Assay for inhibitory effect on YSK-4, Z'-LYTE kinase assay; type: biochemical
Protocol: C. Assay for Inhibitory Effect on YSK-4
The experimental procedure referred to the Z′-LYTE Screening Protocol and Assay Conditions provided by ThermoFisher Scientific.
C-1. Material Preparation
Peptide/Kinase Mixture was pre-diluted with Kinase Buffer to 2× working concentration.
ATP solution was pre-diluted with Kinase Buffer (50 mM HEPES pH 7.5, 0.01% BRIJ-35, 10 mM MgCl2, 1 mM EGTA) to 4× working concentration.
The development reagent solution is Novel PKC Lipid Mix, which contains 2 mg/mL Phosphatidyl Serine, 0.2 mg/mL DAG in 20 mM HEPES, pH 7.4 and 0.3% CHAPS, and was pre-diluted 10 fold with development buffer.
1. 100 nL of the above diluted test compound and 2.4 μL of kinase buffer were added to a black 384-well plate (Corning, Cat. NO. 4514), then add 5 μL of the peptide/kinase mixture mentioned above was added thereto, and after that 2.5 μL of ATP solution was added thereto, and the culture plate was shaken for 30 seconds.
2. Next, the culture plate was placed at room temperature and incubated for 60 minutes.
3. After that 5 μL of the development reagent solution was added and the culture plate was shaken for 30 seconds in the dark, and then the data was read and analyzed with a fluorescence plate reader.
In addition, for the kinase, the following control group was prepared and placed on the same culture plate as the kinase:
(1) 0% Phosphorylation Control (100% Inhibition Control)
This control yields 100% cleaved peptide in the Development Reaction.
(2) 100% Phosphorylation Control
A synthetically phosphorylated peptide of the same sequence as the peptide substrate is used as the 100% Phosphorylation Control.
The Phosphorylation percent achieved in a specific reaction well (Experimental group) was calculated based on the 0% Phosphorylation Control and 100% Phosphorylation Control.

humans = details: phase III clinical trial; cited from earlier work
normal macaques = assay: Intraocular pressure in animal model of macaque with normal intraocular pressure; type: in vivo; details: eye drop 0.1% or 0.03%
Protocol: The intraocular pressure of animals was measured by a pneumatic tonometer (Model 30™ Pneumatonometer). Animal anesthesia was required before intraocular pressure measurement. After topical administration (once a day), the intraocular pressure of the animals was measured at the set time points.

rabbit eyes [6] = assay: Eye irritation evaluation (OECD/OCDE 405); type: in vivo, New Zealand white rabbit
Excerpt: (2) Irritation Evaluation

[7] = Content analysis for candidate drug in aqueous humor, iris and ciliary body after administration
Excerpt: (4) Content Analysis for Candidate Drug in Aqueous Humor (AH) after Administration

cornea of rabbit eyes = assay: Observation of cornea with a slit lamp after 7 days of administration; type: in vivo, New Zealand white rabbit; details: 0.1% eye drops, continuous administration for 7 days, once a day
[8] = eye drops containing 0.1% and 0.03% Compound 20

Chain of MYLK4 (Q86YV6 whole entry): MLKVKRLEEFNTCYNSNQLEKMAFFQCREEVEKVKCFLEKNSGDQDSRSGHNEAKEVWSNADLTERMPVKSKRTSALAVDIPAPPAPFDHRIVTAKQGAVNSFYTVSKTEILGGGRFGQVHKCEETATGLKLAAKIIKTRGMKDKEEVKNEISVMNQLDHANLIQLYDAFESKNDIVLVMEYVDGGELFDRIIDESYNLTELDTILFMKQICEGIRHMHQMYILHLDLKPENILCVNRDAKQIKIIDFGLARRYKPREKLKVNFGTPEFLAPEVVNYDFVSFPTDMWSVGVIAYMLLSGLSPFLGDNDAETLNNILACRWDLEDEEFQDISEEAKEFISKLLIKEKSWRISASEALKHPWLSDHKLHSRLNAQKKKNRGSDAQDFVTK
Chain of YSK4 (Q56UN5 whole entry): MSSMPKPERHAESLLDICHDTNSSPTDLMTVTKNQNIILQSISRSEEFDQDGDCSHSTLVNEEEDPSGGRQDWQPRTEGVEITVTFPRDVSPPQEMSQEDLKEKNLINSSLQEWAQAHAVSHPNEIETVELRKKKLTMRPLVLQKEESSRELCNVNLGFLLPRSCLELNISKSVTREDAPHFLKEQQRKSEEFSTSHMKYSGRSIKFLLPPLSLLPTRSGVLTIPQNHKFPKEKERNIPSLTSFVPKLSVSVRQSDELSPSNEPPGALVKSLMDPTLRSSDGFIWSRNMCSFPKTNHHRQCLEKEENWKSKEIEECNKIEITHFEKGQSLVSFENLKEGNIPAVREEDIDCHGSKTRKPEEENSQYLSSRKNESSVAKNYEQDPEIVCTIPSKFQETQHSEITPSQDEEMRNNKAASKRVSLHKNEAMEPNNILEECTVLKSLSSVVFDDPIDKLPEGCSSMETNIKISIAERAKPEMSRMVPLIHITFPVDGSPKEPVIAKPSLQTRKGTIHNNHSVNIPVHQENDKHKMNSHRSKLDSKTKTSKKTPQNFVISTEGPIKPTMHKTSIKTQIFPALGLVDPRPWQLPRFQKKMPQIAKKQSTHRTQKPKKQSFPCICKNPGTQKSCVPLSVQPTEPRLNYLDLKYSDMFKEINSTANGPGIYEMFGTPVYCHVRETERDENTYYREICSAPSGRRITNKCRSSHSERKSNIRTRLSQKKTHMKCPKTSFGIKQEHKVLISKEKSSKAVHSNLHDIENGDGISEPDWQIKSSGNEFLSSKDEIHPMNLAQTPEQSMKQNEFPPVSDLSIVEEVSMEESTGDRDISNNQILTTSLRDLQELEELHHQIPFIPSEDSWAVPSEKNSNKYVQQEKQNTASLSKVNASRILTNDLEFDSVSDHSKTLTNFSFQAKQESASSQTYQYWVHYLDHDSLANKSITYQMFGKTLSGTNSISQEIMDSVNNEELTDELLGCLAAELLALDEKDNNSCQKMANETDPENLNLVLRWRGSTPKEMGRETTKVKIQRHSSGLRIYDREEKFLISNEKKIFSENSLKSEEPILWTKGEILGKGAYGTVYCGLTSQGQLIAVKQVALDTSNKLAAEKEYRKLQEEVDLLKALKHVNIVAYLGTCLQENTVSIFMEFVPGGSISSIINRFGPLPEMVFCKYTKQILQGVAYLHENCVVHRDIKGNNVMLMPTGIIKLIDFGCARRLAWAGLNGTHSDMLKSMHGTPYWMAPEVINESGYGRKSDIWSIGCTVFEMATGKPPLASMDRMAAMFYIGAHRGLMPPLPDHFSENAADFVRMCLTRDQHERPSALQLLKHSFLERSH
Chain of ROCK1 (Q13464 whole entry, species assumed): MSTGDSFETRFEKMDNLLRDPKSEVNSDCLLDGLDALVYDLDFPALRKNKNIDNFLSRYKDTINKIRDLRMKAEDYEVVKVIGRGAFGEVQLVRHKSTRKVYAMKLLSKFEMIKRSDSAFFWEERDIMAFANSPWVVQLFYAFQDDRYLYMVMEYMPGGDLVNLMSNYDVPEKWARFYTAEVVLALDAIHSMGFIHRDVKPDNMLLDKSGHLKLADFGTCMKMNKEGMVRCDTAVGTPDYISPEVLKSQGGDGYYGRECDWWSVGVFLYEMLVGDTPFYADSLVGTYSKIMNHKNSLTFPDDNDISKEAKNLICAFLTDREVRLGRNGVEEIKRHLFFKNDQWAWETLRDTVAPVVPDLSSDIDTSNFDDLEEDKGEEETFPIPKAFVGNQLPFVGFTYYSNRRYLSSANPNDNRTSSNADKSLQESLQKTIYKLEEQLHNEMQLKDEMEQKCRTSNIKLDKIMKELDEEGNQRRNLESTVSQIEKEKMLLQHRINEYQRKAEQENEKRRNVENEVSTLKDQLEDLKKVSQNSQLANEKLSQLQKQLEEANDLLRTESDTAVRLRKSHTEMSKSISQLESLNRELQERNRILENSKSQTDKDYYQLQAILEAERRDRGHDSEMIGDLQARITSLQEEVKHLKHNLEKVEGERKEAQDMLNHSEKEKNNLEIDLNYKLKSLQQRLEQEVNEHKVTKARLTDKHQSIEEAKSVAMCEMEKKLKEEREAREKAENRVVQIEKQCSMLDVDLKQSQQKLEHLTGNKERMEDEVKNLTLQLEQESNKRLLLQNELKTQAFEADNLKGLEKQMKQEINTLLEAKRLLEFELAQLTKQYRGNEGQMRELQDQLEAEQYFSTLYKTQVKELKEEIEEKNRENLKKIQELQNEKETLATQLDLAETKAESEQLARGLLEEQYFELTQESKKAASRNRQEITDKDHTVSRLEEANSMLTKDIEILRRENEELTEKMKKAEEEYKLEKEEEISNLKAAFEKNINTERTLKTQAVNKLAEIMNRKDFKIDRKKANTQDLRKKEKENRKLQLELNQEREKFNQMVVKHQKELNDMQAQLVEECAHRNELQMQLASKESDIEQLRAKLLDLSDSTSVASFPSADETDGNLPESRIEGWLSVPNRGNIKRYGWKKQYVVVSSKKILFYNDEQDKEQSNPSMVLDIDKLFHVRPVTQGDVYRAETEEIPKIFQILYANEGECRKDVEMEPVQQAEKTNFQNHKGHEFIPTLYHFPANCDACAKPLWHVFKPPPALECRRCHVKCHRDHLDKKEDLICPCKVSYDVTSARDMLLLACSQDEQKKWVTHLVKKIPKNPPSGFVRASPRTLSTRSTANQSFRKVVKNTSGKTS

Cc1ccc(C(=O)OCc2ccc([C@@H](CN)C(=O)Nc3ccc4cnccc4c3)cc2)c(C)c1 [AR-13324, Netarsudil, reference compound]
AUC ([1]; dose 0.02%): 132.9
Maximum intraocular pressure difference (%) ([1]; dose 0.02%): −20.8%
Maximum intraocular pressure difference (mm Hg) ([1]; dose 0.02%): −7.7 ± 4.2 mm Hg
difference compared with the physiological saline or the vehicle (t-test) ([1]; eye drop containing 0.02%): no statistically significant difference
reduction of the intraocular pressure ([1]; eye drop containing 0.02%): about 7.7±4.2 mmHg
time point at which maximum effect is achieved ([2]; dose 1%): 6 h
Intraocular pressure difference (mmHg) ([2]; dose 1%): 4.5 mmHg
Maximum intraocular pressure difference (mmHg) ([3]; dose 0.02%): 3.6 ± 2.1 mmHg
reduction of intraocular pressure in percent ([3]; eye drop containing 0.02%): about 11.0%
IC50 (MYLK4): > 1000 nM
efficacy compared with Timolol (patients; patients <25 mmHg): comparable to Timolol
efficacy compared with Timolol (patients; patients with intraocular pressure >25 mmHg): not as effective as the conventional glaucoma treatment drug Timolol
OECD Score: Chemosis (rabbit eyes [4]; Therapeutic index: 2): 1
OECD Score: Discharge (rabbit eyes [4]; Therapeutic index: 2): 2
OECD Score: Redness (rabbit eyes [4]; Therapeutic index: 2): 1
OECD Score: Total (rabbit eyes [4]; Therapeutic index: 2): 4

NCC(C(=O)Nc1ccc(-c2cn[nH]c2)cc1)c1ccccc1 (racemic) [Compound 7, N-(4-(1H-pyrazol-4-yl)phenyl)-3-amino-2-phenylpropanamide dihydrochloride]
maximum effect (Emax) dose in the normal intraocular pressure rabbit model [5]: 1%
time point at which maximum effect is achieved ([2]; dose 1%): 4 h
Intraocular pressure difference (mmHg) ([2]; dose 1%): 5.1 mmHg
Maximum intraocular pressure difference (mmHg) ([3]; dose 0.5%): 6.7 ± 1.6 mmHg
Maximum intraocular pressure difference (mmHg) ([3]; dose 1%): 11.8 ± 0.8 mmHg
IC50 (MYLK4): 10 to 100 nM
IC50 (ROCK1): 1 to 10 nM
OECD Score: Chemosis (rabbit eyes [4]; Therapeutic index: 3): 0
OECD Score: Discharge (rabbit eyes [4]; Therapeutic index: 3): 1
OECD Score: Redness (rabbit eyes [4]; Therapeutic index: 3): 1
OECD Score: Total (rabbit eyes [4]; Therapeutic index: 3): 2
IC50 (YSK4; ATP 5 μM): > 1000 nM

C[C@H]1CNCCCN1S(=O)(=O)c1cccc2cncc(F)c12 [Ripasudil]
incidence of mild conjunctival hyperemia (humans): up to 75%

NC[C@@H](C(=O)Nc1ccc(-c2cn[nH]c2)cc1)c1ccccc1 [Compound 20, (S)—N-(4-(1H-pyrazol-4-yl)phenyl)-3-amino-2-phenylpropanamide dihydrochloride]
side effects, such as pink eye (normal macaques): without obvious side effects
effect of reducing intraocular pressure compared with 0.02% AR-13324 (normal macaques; once a day): equivalent to or better than that of AR-13324
effect in reducing intraocular pressure compared with AR-13324 (t-test) ([1]; 0.1% Compound 20 versus 0.02% AR-13324, p<0.05): significantly better than that of AR-13324
AUC ([1]; dose 0.1%): 99.1
Maximum intraocular pressure difference (%) ([1]; dose 0.1%): −40.4%
Maximum intraocular pressure difference (mm Hg) ([1]; dose 0.1%): −18.0 ± 6.8 mm Hg
reduction of the intraocular pressure ([1]; eye drop containing 0.1%): about 18.0±6.8 mmHg
dose dependence of the reduction of intraocular pressure ([5]; 0.01%, 0.03%, 0.1%): exhibits a dose dependent effect
increase of the reduction in intraocular pressure on Day 3 compared to Day 1 ([5]; 0.03% Compound 20, on average): ~1 mmHg
The magnitude of intraocular pressure reduction (ΔIOP) (mmHg) ([5]; Day 1, 0.01% Compound 20, 50 μL eye drop): −2.9 ± 1.1 mmHg
The maximum magnitude of the reduction in intraocular pressure ([5]; Day 1, 0.01% Compound 20, versus control eye): 18.7%
The magnitude of intraocular pressure reduction (ΔIOP) (mmHg) ([5]; Day 1, 0.03% Compound 20, 50 μL eye drop): −4.3 ± 1.2 mmHg
The maximum magnitude of the reduction in intraocular pressure ([5]; Day 1, 0.03% Compound 20, versus control eye): 28.3%
The magnitude of intraocular pressure reduction (ΔIOP) (mmHg) ([5]; Day 1, 0.10% Compound 20, 50 μL eye drop): −5.3 ± 0.6 mmHg
The maximum magnitude of the reduction in intraocular pressure ([5]; Day 1, 0.10% Compound 20, versus control eye): 32.2%
The magnitude of intraocular pressure desc (ΔIOP) (mmHg) ([5]; Day 3, 0.01% Compound 20, once a day): −2.7 ± 0.8 mmHg
The maximum magnitude of the reduction in intraocular pressure ([5]; Day 3, 0.01% Compound 20, versus control eye): 15.4%
The magnitude of intraocular pressure desc (ΔIOP) (mmHg) ([5]; Day 3, 0.03% Compound 20, once a day): −5.1 ± 1.2 mmHg
The maximum magnitude of the reduction in intraocular pressure ([5]; Day 3, 0.03% Compound 20, versus control eye): 30.5%
The magnitude of intraocular pressure desc (ΔIOP) (mmHg) ([5]; Day 3, 0.10% Compound 20, once a day): −5.2 ± 1.3 mmHg
The maximum magnitude of the reduction in intraocular pressure ([5]; Day 3, 0.10% Compound 20, versus control eye): 32.6%
maximum effect (Emax) dose in the normal intraocular pressure rabbit model [5]: 0.03%
Tmax ([5]; rabbit, in vivo, dihydrochloride): 6 h and 8 h
time point at which maximum effect is achieved ([2]; dose 0.03%): 8 h
Intraocular pressure difference (mmHg) ([2]; dose 0.03%): 4.9 mmHg
maximum magnitude of the reduction in intraocular pressure [2, 8]: 4.4-4.9 mmHg
time of maximum effect (Emax) after administration [2, 8]: 6 to 8 h
eye irritation compared with AR-13324 (0.02%) (rabbit eyes [6]; Compound 20 at 0.1%): lower than AR-13324
eye irritation (rabbit eyes [6]; [8]): slight
content in the aqueous humor after administration ([7]; normal rabbits): can reach the requirement of ROCK inhibition
drug concentration at the target tissue (iris and ciliary body, aqueous humor) ([7]; rabbit eyes with normal intraocular pressure): reaches the target effect IC90 or more within 8 hours
reduction of intraocular pressure in percent ([3]; eye drop containing 0.03%): about 15.3%
reduction of intraocular pressure in percent ([3]; eye drop containing 0.1%): about 28.8%
IC50 (MYLK4): 10 to 100 nM
IC50 (ROCK1): 1 to 10 nM
state of the cornea (cornea of rabbit eyes): free of damage and turbidity
inhibitory effect on YSK4 (in words) (YSK4): simultaneously targets ROCK, MYLK-4 and YSK-4
